Source: PubChem BioAssay (NCI)
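GI50 = concentration required for 50% inhibition of growth. TGI: concentration producing complete growth inhibition.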

Assays:
Assay in all cases: NCI-60 cell line screen, 384-well format
OVCAR-5 ovarian = system: OVCAR-5 ovarian
TK-10 renal = system: TK-10 renal
UACC-257 melanoma = system: UACC-257 melanoma
T-47D breast = system: T-47D breast
HT29 colon = system: HT29 colon
786-0 renal = system: 786-0 renal
SF-295 CNS = system: SF-295 CNS
A549 NSCLC = system: A549 NSCLC
SK-MEL-2 melanoma = system: SK-MEL-2 melanoma
MDA-MB-231 breast = system: MDA-MB-231 breast
MDA-MB-435 melanoma = system: MDA-MB-435 melanoma
U251 glioblastoma = system: U251 glioblastoma
NCI-H522 lung = system: NCI-H522 lung
SNB-19 CNS = system: SNB-19 CNS
HCC-2998 colon = system: HCC-2998 colon
SR leukemia = system: SR leukemia
UACC-62 melanoma = system: UACC-62 melanoma
HL-60(TB) leukemia = system: HL-60(TB) leukemia
SF-539 CNS = system: SF-539 CNS
SK-OV-3 ovarian = system: SK-OV-3 ovarian
OVCAR-8 ovarian = system: OVCAR-8 ovarian
SK-MEL-28 melanoma = system: SK-MEL-28 melanoma
HCT-15 colon = system: HCT-15 colon
PC-3 prostate = system: PC-3 prostate
HOP-92 NSCLC = system: HOP-92 NSCLC
RXF 393 renal = system: RXF 393 renal
SF-268 CNS = system: SF-268 CNS
MOLT-4 leukemia = system: MOLT-4 leukemia
K-562 leukemia = system: K-562 leukemia
HCT-116 colon = system: HCT-116 colon
BT-549 breast = system: BT-549 breast
CAKI-1 renal = system: CAKI-1 renal
MDA-MB-468 breast = system: MDA-MB-468 breast
OVCAR-4 ovarian = system: OVCAR-4 ovarian
NCI/ADR-RES ovarian = system: NCI/ADR-RES ovarian
UO-31 renal = system: UO-31 renal
M14 melanoma = system: M14 melanoma
CCRF-CEM leukemia = system: CCRF-CEM leukemia
IGROV1 ovarian = system: IGROV1 ovarian
RPMI-8226 leukemia = system: RPMI-8226 leukemia
NCI-H23 lung = system: NCI-H23 lung
OVCAR-3 ovarian = system: OVCAR-3 ovarian
SW-620 colon = system: SW-620 colon
COLO 205 colon = system: COLO 205 colon
ACHN renal = system: ACHN renal
NCI-H226 lung = system: NCI-H226 lung
MALME-3M melanoma = system: MALME-3M melanoma
LOX IMVI melanoma = system: LOX IMVI melanoma
KM12 colon = system: KM12 colon
NCI-H460 NSCLC = system: NCI-H460 NSCLC
MCF7 breast = system: MCF7 breast
HOP-62 NSCLC = system: HOP-62 NSCLC
DU-145 prostate = system: DU-145 prostate
A498 renal = system: A498 renal
SK-MEL-5 melanoma = system: SK-MEL-5 melanoma
SN12C renal = system: SN12C renal
NCI-H322M lung = system: NCI-H322M lung

## COc1ccc(CC(NC(=O)[C@H](C)NC(=O)CN2CCOCC2)C(=O)N[C@@H](Cc2ccccc2)C(=O)[C@@]2(C)CO2)cc1 (some centres undefined)
OVCAR-5 ovarian
  GI50: 192 nM
  TGI: 360 nM
TK-10 renal
  GI50: 298 nM
  TGI: 802 nM
UACC-257 melanoma
  GI50: 123 nM
  TGI: 253 nM
T-47D breast
  GI50: 159 nM
  TGI: 302 nM
HT29 colon
  GI50: 181 nM
  TGI: 330 nM
786-0 renal
  GI50: 297 nM
  TGI: 1030 nM
SF-295 CNS
  GI50: 157 nM
  TGI: 294 nM
A549 NSCLC
  GI50: 319 nM
  TGI: 1080 nM
SK-MEL-2 melanoma
  GI50: 22.6 nM
  TGI: 93.8 nM
MDA-MB-231 breast
  GI50: 166 nM
  TGI: 309 nM
MDA-MB-435 melanoma
  GI50: 141 nM
  TGI: 281 nM
U251 glioblastoma
  GI50: 173 nM
  TGI: 316 nM
NCI-H522 lung
  GI50: 167 nM
  TGI: 304 nM
SNB-19 CNS
  GI50: 188 nM
  TGI: 347 nM
HCC-2998 colon
  GI50: 173 nM
  TGI: 312 nM
SR leukemia
  GI50: 30.4 nM
  TGI: 106 nM
UACC-62 melanoma
  GI50: 126 nM
  TGI: 254 nM
HL-60(TB) leukemia
  GI50: 147 nM
  TGI: 280 nM
SF-539 CNS
  GI50: 175 nM
  TGI: 315 nM
SK-OV-3 ovarian
  GI50: 171 nM
  TGI: 312 nM
OVCAR-8 ovarian
  GI50: 184 nM
  TGI: 340 nM
SK-MEL-28 melanoma
  GI50: 132 nM
  TGI: 262 nM
HCT-15 colon
  GI50: 1810 nM
  TGI: 3390 nM
PC-3 prostate
  GI50: 188 nM
  TGI: 333 nM
HOP-92 NSCLC
  GI50: 149 nM
  TGI: 294 nM
RXF 393 renal
  GI50: 135 nM
  TGI: 268 nM
SF-268 CNS
  GI50: 136 nM
  TGI: 269 nM
MOLT-4 leukemia
  GI50: 15.5 nM
  TGI: 28.9 nM
K-562 leukemia
  GI50: 224 nM
  TGI: 468 nM
HCT-116 colon
  GI50: 167 nM
  TGI: 309 nM
BT-549 breast
  GI50: 175 nM
  TGI: 316 nM
CAKI-1 renal
  GI50: 271 nM
  TGI: 765 nM
MDA-MB-468 breast
  GI50: 180 nM
  TGI: 324 nM
OVCAR-4 ovarian
  GI50: 147 nM
  TGI: 284 nM
NCI/ADR-RES ovarian
  GI50: 20400 nM
  TGI: 59400 nM
UO-31 renal
  GI50: 1750 nM
  TGI: 3170 nM
M14 melanoma
  GI50: 142 nM
  TGI: 278 nM
CCRF-CEM leukemia
  GI50: 37.4 nM
  TGI: 137 nM
IGROV1 ovarian
  GI50: 255 nM
  TGI: 647 nM
RPMI-8226 leukemia
  GI50: 23.8 nM
  TGI: 55.4 nM
NCI-H23 lung
  GI50: 210 nM
  TGI: 362 nM
OVCAR-3 ovarian
  GI50: 131 nM
  TGI: 262 nM
SW-620 colon
  GI50: 167 nM
  TGI: 312 nM
COLO 205 colon
  GI50: 304 nM
  TGI: 1010 nM
ACHN renal
  GI50: 509 nM
  TGI: 1690 nM
NCI-H226 lung
  GI50: 60.5 nM
  TGI: 186 nM
MALME-3M melanoma
  GI50: 136 nM
  TGI: 281 nM
LOX IMVI melanoma
  GI50: 209 nM
  TGI: 355 nM
KM12 colon
  GI50: 165 nM
  TGI: 308 nM
NCI-H460 NSCLC
  GI50: 181 nM
  TGI: 355 nM
MCF7 breast
  GI50: 138 nM
  TGI: 382 nM
HOP-62 NSCLC
  GI50: 184 nM
  TGI: 331 nM
DU-145 prostate
  GI50: 302 nM
  TGI: 861 nM
A498 renal
  GI50: 226 nM
  TGI: 545 nM
SK-MEL-5 melanoma
  GI50: 192 nM
  TGI: 345 nM
SN12C renal
  GI50: 179 nM
  TGI: 320 nM
NCI-H322M lung
  GI50: 284 nM
  TGI: 860 nM
